Data taken from article PMC5464333, “The binding orientations of structurally-related ligands can differ; A cautionary note” (Neuropharmacology, 2017).
Numbering of substitutions follows the chain as printed. Where two headings read alike, the source gives them in different places. Each block holds one compound with its values, some of them ahead of it.

Legend:
α7 nACh receptor [1] = molecular target: T1, α7 nACh receptor (UniProt P22770+P23979, M226I/T225I)
Procedure: (§1) Human 5-HT3A subunit cDNA (Accession: P46098, kindly provided by J. Peters, Dundee University, UK) was cloned into pcDNA3.1 for expression in HEK293 cells. […] Cells were transiently transfected with either of these cDNA constructs using polyethyleneimine (PEI: 25 kDa, linear, powder, Polysciences Inc., Eppelheim, Germany). 30 μl of PEI (1 mg ml^−1), 5 μg cDNA and 1 ml DMEM were incubated for 10 min at room temperature, added drop wise to a 90 mm plate of 70–80% conﬂuent HEK293 cells, and incubated for 2–3 days before use.
(§2) Transfected HEK 293 cells were scraped into 0.6 ml of ice-cold 10 mM HEPES buffer (pH 7.4) and frozen. After thawing, they were washed with HEPES buffer, homogenised by trituration through a 25 gauge (0.5 mm) needle, and 50 μg of cell suspension incubated in 0.5 ml HEPES buffer containing different concentrations of radioligand. […] Equilibrium reactions were incubated on ice for at least 1 h and terminated by vacuum filtration onto Whatman GF/B filters wetted with 0.3% polyethyleneimine, followed by two rapid washes with 2.5 ml ice cold buffer. Radioactivity was measured by scintillation in Ultima Gold XR (Perkin Elmer, Waltham, MA) using a Tri-Carb 2100 TR (PerkinElmer) scintillation counter. Final counts were monitored to ensure that binding never exceeded 10% of the added concentrations of radioligands.
All data were analysed using GraphPad Prism v5. Individual saturation binding experiments were fitted to the equation below and the fitted values averaged to yield mean ± sem of n independent experiments: y=[…] where Bmax is maximum binding at equilibrium, Kd is the equilibrium dissociation constant and [L] is the free concentration of radioligand. Affinities were compared using 1-way ANOVA and a Dunnett's Post-Test.

α7 nACh receptor [2] = conditions: cited from earlier work
[3] = molecular target: T2, 5-HT3A receptor R92C mutant (Homo sapiens, UniProt P46098, R87C); experiment: Saturation radioligand binding, 5-HT3A R92C mutant; conditions: R92C versus wild type
T2 construct: expressed in transfected cells; host or cells: HEK293, transient, pcDNA3.1
T2 sequence (P46098 24-478 R87C): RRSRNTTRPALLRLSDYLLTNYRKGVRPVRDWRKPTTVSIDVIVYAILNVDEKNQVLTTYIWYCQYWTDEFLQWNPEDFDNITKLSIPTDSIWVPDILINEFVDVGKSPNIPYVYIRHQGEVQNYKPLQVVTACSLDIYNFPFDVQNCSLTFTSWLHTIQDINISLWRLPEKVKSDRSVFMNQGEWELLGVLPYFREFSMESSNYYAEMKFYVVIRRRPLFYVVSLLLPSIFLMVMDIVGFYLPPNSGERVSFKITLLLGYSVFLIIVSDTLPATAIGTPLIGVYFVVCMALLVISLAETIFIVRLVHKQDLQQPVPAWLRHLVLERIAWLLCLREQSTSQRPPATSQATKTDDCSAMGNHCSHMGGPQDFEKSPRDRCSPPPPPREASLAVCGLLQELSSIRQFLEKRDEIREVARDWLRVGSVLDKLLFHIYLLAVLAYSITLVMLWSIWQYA
Procedure: (§3) Mutagenesis was performed using the QuikChange method (Agilent Technologies Inc., California, USA). Cysteine residues were substituted for amino acids throughout each of the binding loops A - E (Fig. 1). To facilitate comparisons with previous work, we have used the numbering of the equivalent residues in the mouse 5-HT3A subunit (Q6J1J7).
as §1
(§4) Transfected HEK 293 cells were scraped into 0.6 ml of ice-cold 10 mM HEPES buffer (pH 7.4) and frozen. […] Radioactivity was measured by scintillation in Ultima Gold XR (Perkin Elmer, Waltham, MA) using a Tri-Carb 2100 TR (PerkinElmer) scintillation counter. Final counts were monitored to ensure that binding never exceeded 10% of the added concentrations of radioligands.
(§5) All data were analysed using GraphPad Prism v5. […]

[4] = molecular target: T3, 5-HT3A receptor wild type (Homo sapiens, UniProt P46098); experiment: Saturation radioligand binding, wild type 5-HT3A receptor in HEK293; conditions: wild type 5-HT3 receptors
T3 construct: expressed in transfected cells; host or cells: HEK293, transient, pcDNA3.1
T3 sequence (P46098 24-478): T2 sequence (P46098 24-478 R87C) with C64R
Procedure: as §1, §2, §5

[5] = molecular target: T4, 5-HT3A receptor I71C mutant (Homo sapiens, UniProt P46098, I66C); experiment: Saturation radioligand binding, 5-HT3A I71C mutant; conditions: I71C versus wild type
T4 construct: expressed in transfected cells; host or cells: HEK293, transient, pcDNA3.1
T4 sequence (P46098 24-478 I66C): T2 sequence (P46098 24-478 R87C) with I43C, C64R
Procedure: as §3, §1, §4, §5

α7 nACh receptor [6] = molecular target: T1, α7 nACh receptor; experiment: Competition binding with [3H]epibatidine at α7 nACh receptors; set-up: a chimaera of the chick α7 nACh extracellular domain fused to the 5-HT3 transmembrane/intracellular domains; expressed in transfected cells; host or cells: HEK293 cells, transient transfection (pcDNA3.1, PEI); species or system chick
Procedure: as §1, with “J.” for “J. Peters, Dundee University, UK) was cloned into pcDNA3.1 for expression in HEK293 cells.”, “use. […] Non-specific binding was determined with 30 μM (-)/-nicotine. Equilibrium reactions were incubated on ice for at least 1 h and bound radioligand measured using the same method as described above.” for “use.”

[7] = molecular target: T5, 5-HT3A receptor L126C mutant (Homo sapiens, UniProt P46098, L121C); experiment: Saturation radioligand binding, 5-HT3A L126C mutant; conditions: L126C versus wild type
T5 construct: expressed in transfected cells; host or cells: HEK293, transient, pcDNA3.1
T5 sequence (P46098 24-478 L121C): T2 sequence (P46098 24-478 R87C) with C64R, L98C
Procedure: as §3, §1, §4, §5

AChBP = AChBP used for co-crystallisation; ref Hibbs et al., 2009; read-out: affinity; cited from earlier work
[8] = molecular target: T6, 5-HT3A receptor P155C mutant (Homo sapiens, UniProt P46098, P150C); experiment: Saturation radioligand binding, 5-HT3A P155C mutant; conditions: P155C versus wild type
T6 construct: expressed in transfected cells; host or cells: HEK293, transient, pcDNA3.1
T6 sequence (P46098 24-478 P150C): T2 sequence (P46098 24-478 R87C) with C64R, P127C
Procedure: as §3, §1, §4, §5

α7 nACh receptor [9] = conditions: low potency agonist, cited from earlier work
5-HT3 receptor = molecular target: T7, 5-HT3 receptor (Homo sapiens, UniProt P46098); experiment: Affinities from binding tropisetron, granisetron and their analogues at 5-HT3 receptors; conditions: for Ki / pKi Mean ± SEM: 5-HT3 receptor; for Fold change: Ki relative to parent scaffold
T7 construct: expressed in transfected cells; host or cells: HEK293, transient, pcDNA3.1
T7 sequence (P46098 24-478): T2 sequence (P46098 24-478 R87C) with C64R
Procedure: as §1, §2

[10] = system: Untransfected HEK293 cells; experiment: Radioligand binding at untransfected HEK293 cells; set-up: species or system human
Procedure: Human embryonic kidney (HEK) 293 cells were grown on 90 mm round tissue culture plates as monolayers in DMEM/F12 (Gibco, Life Technologies, CA, USA) supplemented with 10% fetal bovine serum (FBS; Sigma Aldrich) at 37 °C in a moist atmosphere containing 5% CO2.

T1 sequence (P22770+P23979 fused P22770:T225I/P22770:M226I): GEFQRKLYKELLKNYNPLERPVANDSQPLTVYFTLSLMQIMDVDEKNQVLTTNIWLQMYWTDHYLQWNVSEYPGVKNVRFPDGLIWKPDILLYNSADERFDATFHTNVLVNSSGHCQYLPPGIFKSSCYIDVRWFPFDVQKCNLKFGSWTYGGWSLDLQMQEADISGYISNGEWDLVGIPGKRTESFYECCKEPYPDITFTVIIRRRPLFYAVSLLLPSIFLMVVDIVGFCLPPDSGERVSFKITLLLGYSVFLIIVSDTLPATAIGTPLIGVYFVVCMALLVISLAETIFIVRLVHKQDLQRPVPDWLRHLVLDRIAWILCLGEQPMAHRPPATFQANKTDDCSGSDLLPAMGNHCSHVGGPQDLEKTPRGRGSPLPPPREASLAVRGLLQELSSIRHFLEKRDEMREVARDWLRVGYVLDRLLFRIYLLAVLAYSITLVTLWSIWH

saturation binding (α7 nACh receptor [1]; α7 nACh receptors): undetectable | reduction in affinity [3]: 2.5 fold | Non-specific binding, of total [4]: 30.3 ± 1.8% | change in affinity [5]: 1.9 fold | difference in affinity at 5-HT3 versus α7 nACh receptors (α7 nACh receptor [6]; 5-HT3 versus α7 nACh): > 1000 fold | Ki (α7 nACh receptor [6]; competition with [3H]epibatidine): 1580 ± 840 nM | change in affinity [7]: 2.5 fold | decrease in affinity [8]: 5 fold
Compound: CN1[C@@H]2CC[C@H]1C[C@@H](OC(=O)c1c[nH]c3ccccc13)C2 [tropisetron, Tropisetron]
Ki (α7 nACh receptor [2]; α7 nACh receptors, ref Macor et al. (2001)): 6.9 nM | Kd (AChBP): 500 nM | EC50 (α7 nACh receptor [9]; ref Macor et al., 2001): 1300 nM | EC50 (α7 nACh receptor [9]; ref Papke et al., 2005): 600 nM

Compound: O=C(O[C@H]1C[C@H]2CC[C@@H](C1)N2Cc1ccccc1)c1c[nH]c2ccccc12 [Compound 4, (1R,3r,5S)-8-benzyl-8-azabicyclo[3.2.1]octan-3-yl 1H-indole-3-carboxylate]
Ki (5-HT3 receptor): 1440 nM | pKi Mean ± SEM (5-HT3 receptor): 5.84 ± 0.20 | Fold change (5-HT3 receptor): 2007 fold

Compound: [3H]C([3H])([3H])N1C2CCC1CC(OC(=O)c1c[nH]c3ccccc13)C2 (centres unmarked) [[^3H]tropisetron]
saturation binding (α7 nACh receptor [1]): could not be detected | saturable binding [10]: no saturable binding

Compound: COc1ccc2[nH]cc(C(=O)O[C@H]3C[C@H]4CC[C@@H](C3)N4C)c2c1 [Compound 1, (1R,3r,5S)-8-methyl-8-azabicyclo[3.2.1]octan-3-yl 5-methoxy-1H-indole-3-carboxylate]
Ki (5-HT3 receptor): 95.5 nM | pKi Mean ± SEM (5-HT3 receptor): 7.02 ± 0.03 | Fold change (5-HT3 receptor): 133 fold

Compound: COc1ccc2c(C(=O)O[C@H]3C[C@H]4CC[C@@H](C3)N4C)c[nH]c2c1 [Compound 2, (1R,3r,5S)-8-methyl-8-azabicyclo[3.2.1]octan-3-yl 6-methoxy-1H-indole-3-carboxylate]
Ki (5-HT3 receptor): 182 nM | pKi Mean ± SEM (5-HT3 receptor): 6.74 ± 0.04 | Fold change (5-HT3 receptor): 253 fold

Compound: COc1cccc2c(C(=O)O[C@H]3C[C@H]4CC[C@@H](C3)N4C)c[nH]c12 [Compound 3, (1R,3r,5S)-8-methyl-8-azabicyclo[3.2.1]octan-3-yl 7-methoxy-1H-indole-3-carboxylate]
Ki (5-HT3 receptor): 30.2 nM | pKi Mean ± SEM (5-HT3 receptor): 7.52 ± 0.12 | Fold change (5-HT3 receptor): 42 fold

Compound: CN1C2CCCC1CC(NC(=O)c1nn(C)c3ccccc13)C2 (centres unmarked) [[^3H]granisetron]
saturable binding [10]: no saturable binding

Compound: Clc1ccc(C2CC3CCC2N3)cn1 (centres unmarked) [[^3H]epibatidine]
Kd (α7 nACh receptor [1]): 8.81 ± 0.13 nM

Compound: COc1cccc2c(C(=O)N[C@H]3C[C@H]4CCC[C@@H](C3)N4C)nn(C)c12 [Compound 7, 7-methoxy-1-methyl-N-((1R,3r,5S)-9-methyl-9-azabicyclo[3.3.1]nonan-3-yl)-1H-indazole-3-carboxamide]
Ki (5-HT3 receptor): 120 nM | pKi Mean ± SEM (5-HT3 receptor): 6.92 ± 0.24 | Fold change (5-HT3 receptor): 255 fold

Compound: CN1C2CCC1CC(NC(=O)c1nn(C)c3ccccc13)C2 (centres unmarked) [LY-278,584]
binding (α7 nACh receptor [2]; α7 nACh receptor, ref Macor et al., 2001): cannot be detected
